Reference: the supplement of paper PMC10307832

Legend:
Test in all cases: relative viability (nuclei count vs DMSO), 5 days (fraction); higher = more cells survive
[1] = compound: C1=CC2=NC=CN=C2C=C1/C=C/3\C(=O)NC(=O)S3 + Cc1nc(Nc2ncc(C(=O)Nc3c(C)cccc3Cl)s2)cc(N2CCN(CCO)CC2)n1 [Dasatinib] (partner 0.075 µM)
Summary of the method: (§1)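 Relative viability divides the nuclei count in treated wells by that in vehicle wells. Lung cancer cell lines were seeded in 1536-well plates, dosed by pin tool the next day, and fixed and stained after 5 days in one step with final 0.05% Triton X-100, 1% formaldehyde and 1 ug/ml Hoechst. Dosing was a single drug or a fixed anchor-drug dose plus five library-drug doses (not always all listed) in √10 steps, and values are medians of duplicate plates imaged at 4×.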

BGJ398 + Pemetrexed = compound: CCN1CCN(c2ccc(Nc3cc(N(C)C(=O)Nc4c(Cl)c(OC)cc(OC)c4Cl)ncn3)cc2)CC1 [BGJ398] + Nc1nc2[nH]cc(CCc3ccc(C(=O)N[C@@H](CCC(=O)O)C(=O)O)cc3)c2c(=O)[nH]1 [Pemetrexed] (partner 0.2 µM)
Summary of the method: as §1

BGJ398 + Tozasertib = compound: CCN1CCN(c2ccc(Nc3cc(N(C)C(=O)Nc4c(Cl)c(OC)cc(OC)c4Cl)ncn3)cc2)CC1 [BGJ398] + Cc1cc(Nc2cc(N3CCN(C)CC3)nc(Sc3ccc(NC(=O)C4CC4)cc3)n2)n[nH]1 [Tozasertib] (partner 0.1 µM)
Summary of the method: as §1

BGJ398 + Bortezomib = compound: CCN1CCN(c2ccc(Nc3cc(N(C)C(=O)Nc4c(Cl)c(OC)cc(OC)c4Cl)ncn3)cc2)CC1 [BGJ398] + CC(C)C[C@H](NC(=O)[C@H](Cc1ccccc1)NC(=O)c1cnccn1)B(O)O [Bortezomib] (partner 0.002 µM)
Summary of the method: as §1

Row | Cell Line | relative viability ([1]; first compound 0.02 µM) | relative viability ([1]; first compound 0.2 µM) | relative viability ([1]; first compound 0.6325 µM) | relative viability ([1]; first compound 2 µM) | relative viability (BGJ398 + Pemetrexed; first compound 0.01 µM) | relative viability (BGJ398 + Pemetrexed; first compound 0.03162 µM) | relative viability (BGJ398 + Pemetrexed; first compound 0.1 µM) | relative viability (BGJ398 + Pemetrexed; first compound 0.3162 µM) | relative viability (BGJ398 + Pemetrexed; first compound 1 µM) | relative viability (BGJ398 + Tozasertib; first compound 0.01 µM) | relative viability (BGJ398 + Tozasertib; first compound 0.03162 µM) | relative viability (BGJ398 + Tozasertib; first compound 0.1 µM) | relative viability (BGJ398 + Tozasertib; first compound 0.3162 µM) | relative viability (BGJ398 + Tozasertib; first compound 1 µM) | relative viability (BGJ398 + Bortezomib; first compound 0.01 µM) | relative viability (BGJ398 + Bortezomib; first compound 0.03162 µM) | relative viability (BGJ398 + Bortezomib; first compound 0.1 µM) | relative viability (BGJ398 + Bortezomib; first compound 0.3162 µM) | relative viability (BGJ398 + Bortezomib; first compound 1 µM) | relative viability ([1]; first compound 0.06325 µM)
1 | HCC-366 | 0.613 | 0.645 | 0.552 | 0.0998 | 0.161 | 0.168 | 0.163 | 0.172 | 0.132 | 0.128 | 0.111 | 0.092 | 0.0966 | 0.0852 | 1.07 | 1.1 | 1.15 | 1.09 | 0.991 | 
2 | HCC-827 | 0.338 | 0.267 | 0.301 | 0.266 | 0.254 |  | 0.277 | 0.184 | 0.272 | 0.325 |  | 0.441 | 0.363 | 0.401 | 0.942 | 0.945 | 1.08 | 0.972 | 0.973 | 0.194
3 | HOP-62 | 0.651 | 0.605 | 0.621 | 0.503 | 0.375 | 0.382 | 0.335 | 0.36 | 0.379 | 0.375 | 0.399 | 0.411 | 0.395 | 0.364 | 0.726 | 1.05 | 1.12 | 0.585 | 0.788 | 0.736
4 | IA-LM |  |  |  |  |  |  |  |  |  |  |  |  |  |  | 0.741 | 0.928 | 0.905 | 0.822 | 0.788 | 
5 | LC-2-ad | 0.843 | 0.746 | 0.622 | 0.256 | 0.292 | 0.285 | 0.245 | 0.271 | 0.31 | 0.451 | 0.489 | 0.486 | 0.474 | 0.374 | 0.968 | 1.12 | 1.07 | 1.01 | 1.09 | 0.528
6 | LK-2 | 0.291 | 0.306 | 0.297 | 0.189 | 0.213 | 0.194 | 0.114 | 0.157 | 0.12 | 0.202 | 0.168 | 0.157 | 0.149 | 0.173 |  |  |  |  |  | 0.349
7 | NCI-H358 | 0.151 | 0.167 | 0.14 | 0.105 | 0.173 | 0.167 | 0.199 | 0.17 | 0.188 | 0.0959 | 0.0952 | 0.109 | 0.102 | 0.1 |  |  |  |  |  | 0.202
8 | NCI-H522 | 0.899 | 0.942 | 1.09 | 0.714 | 0.987 | 0.896 | 0.876 | 0.995 | 0.856 | 0.5 | 0.552 | 0.445 | 0.586 | 0.483 |  |  |  |  |  | 1.06
9 | NCI-H727 | 0.488 | 0.355 | 0.378 | 0.24 |  |  |  |  |  | 0.574 | 0.751 | 0.816 | 0.585 | 0.605 | 0.899 | 0.822 | 0.796 | 0.882 | 0.774 | 0.362
10 | NCI-H1299 |  |  |  |  |  |  |  |  |  |  |  |  |  |  | 0.982 | 1.06 | 1.02 | 1.01 | 1.01 | 
11 | NCI-H1395 | 0.44 | 0.417 | 0.417 | 0.354 | 0.827 | 0.82 | 0.77 | 0.559 | 0.524 | 0.739 | 0.789 | 0.72 | 0.624 | 0.511 |  |  |  |  |  | 0.386
12 | NCI-H1563 | 0.477 | 0.523 | 0.486 | 0.316 | 0.749 | 0.968 | 0.754 | 0.58 | 0.433 |  |  |  |  |  | 0.931 | 0.802 | 0.778 | 0.674 | 0.71 | 0.435
13 | NCI-H1623 | 0.511 | 0.526 | 0.524 | 0.422 |  |  |  |  |  | 0.427 | 0.407 | 0.448 | 0.455 | 0.447 |  |  |  |  |  | 0.523
14 | NCI-H1648 |  |  |  |  | 0.85 |  | 0.821 | 0.896 | 0.651 | 0.304 | 0.58 | 0.469 | 0.399 | 0.44 |  |  |  |  |  | 
15 | NCI-H1703 |  |  |  |  |  |  |  |  |  |  |  |  |  |  | 0.451 | 0.467 | 0.253 | 0.261 | 0.457 | 
16 | NCI-H1792 | 0.763 | 0.807 | 0.818 | 0.311 | 0.723 | 0.791 | 0.831 | 0.743 | 0.749 |  |  |  |  |  | 0.936 | 0.963 | 1.11 | 0.926 | 0.942 | 0.653
17 | NCI-H1793 | 0.407 | 0.368 | 0.354 | 0.328 | 0.942 | 0.526 | 0.809 | 0.569 | 0.454 | 0.337 | 0.351 | 0.3 | 0.3 | 0.287 |  |  |  |  |  | 0.39
18 | NCI-H1944 | 0.227 | 0.209 | 0.193 | 0.147 | 0.652 | 0.635 | 0.502 | 0.495 | 0.606 | 0.237 | 0.244 | 0.229 | 0.27 | 0.273 |  |  |  |  |  | 0.191
19 | NCI-H2170 | 0.495 | 0.508 | 0.48 | 0.597 | 0.273 | 0.254 | 0.283 | 0.276 | 0.247 | 0.804 | 0.714 | 0.687 | 0.694 | 0.78 |  |  |  |  |  | 0.611
20 | NCI-H2342 | 0.305 | 0.334 | 0.309 | 0.283 | 0.742 | 0.775 | 0.801 | 0.773 | 0.755 | 0.415 | 0.49 | 0.655 | 0.536 | 0.505 |  |  |  |  |  | 0.315
21 | SK-MES-1 | 0.456 | 0.375 | 0.339 | 0.211 | 0.84 | 0.999 | 0.888 | 1.02 | 0.898 | 0.87 | 0.892 | 0.829 | 0.785 | 0.857 |  |  |  |  |  | 0.267
22 | SW 900 | 0.499 | 0.625 | 0.883 | 0.486 | 0.471 | 0.43 | 0.469 | 0.348 | 0.256 | 0.55 | 0.552 | 0.495 | 0.484 | 0.429 |  |  |  |  |  | 0.788
